Results from patent US8901301B2, “Pyrrolo[2,3-]pyridine kinase inhibitors” (Plexxikon Inc., priority 2009, dated 2014).

Columns and labels:
B-Raf V600E = biological target: T1, B-Raf V600E (Homo sapiens, UniProt P15056, V600E); assay: Raf biochemical kinase assay (biotin-MEK1 phosphorylation), B-Raf V600E; details: 100 μM ATP
T1 construct: purchased Upstate Biotechnology
Description: Assays for biochemical and cell based activity are known in the art, for example, as described in PCT publication WO 2007/002433, the disclosure of which is hereby incorporated by reference as it relates to such assays. For example, the biochemical activity IC50 values are determined with respect to inhibition of A-Raf kinase activity, B-Raf kinase activity, c-Raf-1 kinase activity, or B-Raf V600E kinase activity, where inhibition of phosphorylation of a peptide substrate is measured as a function of compound concentration. Compounds to be tested are diluted in dimethyl sulfoxide to a concentration of 0.1 mM. These are serially diluted 15 μL into 30 μL of dimethyl sulfoxide seven times in 96 well plates for a total of 8 dilution points, and for each dilution point 1 μL is added to a well of an assay plate. Plates are prepared such that each well in a 384 well plate contains 1 μL of compound in 10 μL volume with 0.1 ng Raf enzyme (i.e. any of A-Raf, B-Raf, c-Raf-1 or B-Raf V600E, Upstate Biotechnology or prepared by methods known to one of skill in the art), 50 mM HEPES, pH 7.0, 50 mM NaCl, 2 mM MgCl2, 1 mM MnCl2, 0.01% Tween-20, 1 mM DTT, and 100 nM biotin-MEK1 as substrate. The reaction is started with addition of 10 μL of 200 μM ATP (i.e. final 100 μM ATP). After incubation of the kinase reaction for 45 minutes at room temperature, 5 μL/well of Stop Solution is added (25 mM Hepes pH 7.5, 100 mM EDTA, 0.01% BSA with donor beads (Streptavidin coated beads, Perkin Elmer), acceptor beads (Protein A coated, Perkin Elmer), and anti phosphor MEK1/2 antibody (CellSignal), each at final concentration 10 μg/mL). The plates are incubated for 3 hours at room temperature and read on Envision reader (Perkin Elmer). Phosphorylation of Mek1 results in binding of the anti-phosphor-MEK1/2 antibody and association of the donor and acceptor beads such that signal correlates with kinase activity. The signal vs. compound concentration is used to determine the IC50.

[1] = Relative solubility by turbidity in aqueous buffers; format: physicochemical; details: for turbidity threshold (L, M, H) 4.5: pH 4.5 (Simulated Intestinal fluid); for turbidity threshold (L, M, H) 6.8: pH 6.8 (Simulated Intestinal fluid); for turbidity threshold (L, M, H) 7.4: pH 7.4 (Hepes Buffer)
Description: As an indication of relative solubility, the turbidity of compounds in aqueous solutions is assessed. To assess possible compound properties in different physiological compartments, such as stomach, intestine, and blood, a series of aqueous buffers with varying pH is used. Thus each compound is diluted into four different physiologically relevant buffers and solution turbidity is measured by spectrophotometry.
Compounds are dissolved at a concentration of 25 mM in dimethyl sulfoxide, then serially diluted 1:1 into a 96 well plate, diluting 10 times in pure dimethyl sulfoxide, with the final well of each row a dimethyl sulfoxide blank. In an assay plate, 99 μL of appropriate buffer is added to each well, and 1 μL of each sample dilution is added to the buffer, achieving a range of final total concentrations in aqueous solutions having different pH. The buffers used are Simulated Gastric Fluid (SGF-pH 1.5) 0.5M NaCl, pH 1.5; Simulated Intestinal fluid (SIF-pH 4.5 and pH 6.8) 0.05M NaH2PO4, pH 4.5 and 6.8; and Hepes Buffer (HEPES-pH 7.4) 10 mM HEPES, 150 mM NaCl, pH 7.4. Control compounds pyrene, estriol and propranolol HCl are also assessed. Plates are spun and then mixed for 1 minute, and the absorbance is read using a Tecan Safire II to read wavelengths in the visible range (490, 535, and 650 nm) at four locations per well, reflecting the degree of turbidity present. The average optical density for each wavelength in each well is graphed vs. compound concentration, and the concentration at which the curve crosses a threshold O.D. of 0.01 for each wavelength is reported as the endpoint turbidity assay result. The average of the three wavelengths is used to compare turbidity of compounds. Compounds are considered to have low solubility if the threshold concentration is <31.3 μM, moderate solubility if the threshold concentration is 31.3 μM to 250 μM, and high solubility if the threshold concentration is >250 μM.

CYP2C19 = biological target: T2, CYP2C19 (Homo sapiens, UniProt P33261); assay: CYP inhibition (fluorescent substrate), CYP2C19; format: in vitro ADME; details: substrate CEC; read-out: Cyp IC50 (μM) 2C19
T2 construct: purchased BD Biosciences
T2 sequence (P33261 whole entry): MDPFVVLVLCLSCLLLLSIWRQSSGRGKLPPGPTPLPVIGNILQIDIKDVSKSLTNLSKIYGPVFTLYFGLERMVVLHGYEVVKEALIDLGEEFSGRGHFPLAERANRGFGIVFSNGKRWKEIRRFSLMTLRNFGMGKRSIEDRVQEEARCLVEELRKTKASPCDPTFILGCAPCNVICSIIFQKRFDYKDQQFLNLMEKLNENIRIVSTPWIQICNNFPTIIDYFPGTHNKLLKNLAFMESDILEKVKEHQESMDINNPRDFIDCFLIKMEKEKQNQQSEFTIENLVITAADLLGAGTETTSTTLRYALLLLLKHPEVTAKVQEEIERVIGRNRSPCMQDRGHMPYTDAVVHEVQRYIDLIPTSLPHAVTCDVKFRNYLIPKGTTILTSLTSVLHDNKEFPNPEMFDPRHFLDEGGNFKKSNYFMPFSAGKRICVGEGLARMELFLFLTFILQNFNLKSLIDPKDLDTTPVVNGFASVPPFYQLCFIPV
Description: (§1) CYP (Cytochrome P450) enzymes are the major drug metabolizing enzymes present in the liver. The inhibition of CYP enzyme activity (IC50) for each of CYP1A2, CYP2C19, CYP2C9, CYP2D6, CYP3A4(BFC) and CYP3A4(BQ) is determined for compounds, where inhibition of metabolism of a known substrate leads to a decrease in the fluorescence of the metabolized product. The fluorescence of the product is monitored as a function of compound concentration. Compounds are dissolved in dimethyl sulfoxide to a concentration of 100 mM. These are diluted 1 μL into 82 μL of acetonitrile. An 11 μL aliquot of this solution is then added to 204 μL of cofactor mix (1.3% NADPH Regeneration system Solution A, 1.04% NADPH Regeneration system Solution B from BD Biosciences, 5% acetonitrile and 0.05% dimethyl sulfoxide). These are then serially diluted 1:1 (160 μL to 160 μL co-factor mix) for a total of 10 points. A 10 μL aliquot of this final mixture is dispensed into 384 well assay plates and incubated for 10 minutes at 37° C. […] Assay plates are incubated at 37° C. (CYP1A2-15 min; CYP2C9-45 min; CYP2C19, 2D6 and 3A4-30 min) and read in a Tecan Safire 2 plate reader (CYP1A2, 2C19 and 3A4 409 ex/460 em; CYP2C9 and 2D6 409 ex/530 em). The signal versus compound concentration is used to determine the IC50. The enzymes and substrates for this assay are obtained from BD Biosciences.

CYP2C9 = biological target: T3, CYP2C9 (Homo sapiens, UniProt P11712); assay: CYP inhibition (fluorescent substrate), CYP2C9; format: in vitro ADME; details: substrate MFC; read-out: Cyp IC50 (μM) 2C9
T3 construct: purchased BD Biosciences
T3 sequence (P11712 whole entry): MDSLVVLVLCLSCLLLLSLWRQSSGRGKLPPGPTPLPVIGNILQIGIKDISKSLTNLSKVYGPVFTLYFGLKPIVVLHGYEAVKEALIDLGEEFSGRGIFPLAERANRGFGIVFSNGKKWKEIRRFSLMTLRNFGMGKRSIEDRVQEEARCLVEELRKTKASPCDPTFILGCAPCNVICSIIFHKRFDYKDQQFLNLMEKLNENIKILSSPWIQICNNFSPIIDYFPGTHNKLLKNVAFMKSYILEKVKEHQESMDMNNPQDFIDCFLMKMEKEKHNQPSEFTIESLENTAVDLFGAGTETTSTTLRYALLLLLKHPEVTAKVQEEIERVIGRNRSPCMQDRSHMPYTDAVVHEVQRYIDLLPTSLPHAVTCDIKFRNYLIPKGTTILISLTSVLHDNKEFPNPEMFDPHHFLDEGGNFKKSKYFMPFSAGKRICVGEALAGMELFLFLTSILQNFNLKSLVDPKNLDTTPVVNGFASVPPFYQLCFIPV
Description: as §1

[2] = Relative solubility by turbidity in aqueous buffers; format: physicochemical; details: pH 1.4 as headed (Simulated Gastric Fluid)

T1 sequence (P15056 whole entry V600E): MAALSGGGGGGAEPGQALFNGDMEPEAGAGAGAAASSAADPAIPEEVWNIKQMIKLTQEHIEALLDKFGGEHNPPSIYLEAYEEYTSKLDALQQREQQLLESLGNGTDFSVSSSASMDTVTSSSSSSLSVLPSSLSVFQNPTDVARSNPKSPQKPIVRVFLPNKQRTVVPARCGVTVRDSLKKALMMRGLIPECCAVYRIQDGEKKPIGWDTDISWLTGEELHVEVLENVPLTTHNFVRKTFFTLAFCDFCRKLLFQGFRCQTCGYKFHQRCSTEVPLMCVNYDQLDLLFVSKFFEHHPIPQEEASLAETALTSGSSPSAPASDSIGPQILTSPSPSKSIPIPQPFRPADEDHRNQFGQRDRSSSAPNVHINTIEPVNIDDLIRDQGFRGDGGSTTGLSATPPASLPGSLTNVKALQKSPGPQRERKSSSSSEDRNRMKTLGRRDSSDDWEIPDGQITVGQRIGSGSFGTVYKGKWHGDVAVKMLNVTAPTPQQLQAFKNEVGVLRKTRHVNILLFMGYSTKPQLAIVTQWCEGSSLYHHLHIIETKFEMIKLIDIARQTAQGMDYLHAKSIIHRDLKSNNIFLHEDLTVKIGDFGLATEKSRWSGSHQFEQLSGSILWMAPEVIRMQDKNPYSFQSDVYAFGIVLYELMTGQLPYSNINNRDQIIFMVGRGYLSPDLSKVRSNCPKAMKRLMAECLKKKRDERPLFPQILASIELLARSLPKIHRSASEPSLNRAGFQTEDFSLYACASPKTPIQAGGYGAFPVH

Row | IC50 (B-Raf V600E) | IC50 (CYP2C19) | IC50 (CYP2C9) | SMILES | turbidity threshold (L, M, H) 4.5 [1] | turbidity threshold (L, M, H) 6.8 [1] | turbidity threshold (L, M, H) 7.4 [1] | turbidity threshold (L, M, H) 1.4 [2]
1 | < 0.01 µM | > 10 µM | 5 to 10 µM | CCCS(=O)(=O)Nc1ccc(F)c(C(=O)c2c[nH]c3ncc(-c4cnc(OC)nc4)cc23)c1F [Compound P-0001, propane-1-sulfonic acid {2,4-difluoro-3-[5-(2-methoxy-pyrimidin-5-yl)-1H-pyrrolo[2,3-b]pyridine-3-carbonyl]-phenyl}-amide] | M (moderate solubility if the threshold concentration is 31.3 μM to 250 μM) | M (moderate solubility if the threshold concentration is 31.3 μM to 250 μM) | M (moderate solubility if the threshold concentration is 31.3 μM to 250 μM) | M (moderate solubility if the threshold concentration is 31.3 μM to 250 μM)
2 | < 0.01 µM | 5 to 10 µM | 5 to 10 µM | CCCS(=O)(=O)Nc1ccc(F)c(C(=O)c2c[nH]c3ncc(C#N)cc23)c1F [Compound P-0002, propane-1-sulfonic acid [3-(5-cyano-1H-pyrrolo[2,3-b]pyridine-3-carbonyl)-2,4-difluoro-phenyl]-amide] | M (moderate solubility if the threshold concentration is 31.3 μM to 250 μM) | M (moderate solubility if the threshold concentration is 31.3 μM to 250 μM) | M (moderate solubility if the threshold concentration is 31.3 μM to 250 μM) | M (moderate solubility if the threshold concentration is 31.3 μM to 250 μM)
3 | ~0.1 µM | > 10 µM | > 10 µM | CCCS(=O)(=O)Nc1cccc(C(=O)c2c[nH]c3ncc(C#N)cc23)c1F [Compound P-0003, propane-1-sulfonic acid [3-(5-cyano-1H-pyrrolo[2,3-b]pyridine-3-carbonyl)-2-fluoro-phenyl]-amide] | M (moderate solubility if the threshold concentration is 31.3 μM to 250 μM) | M (moderate solubility if the threshold concentration is 31.3 μM to 250 μM) | M (moderate solubility if the threshold concentration is 31.3 μM to 250 μM) | M (moderate solubility if the threshold concentration is 31.3 μM to 250 μM)
4 | < 0.01 µM | > 10 µM | > 10 µM | N#Cc1cnc2[nH]cc(C(=O)c3c(F)ccc(NS(=O)(=O)c4cc(F)ccc4F)c3F)c2c1 [Compound P-0004, N-[3-(5-cyano-1H-pyrrolo[2,3-b]pyridine-3-carbonyl)-2,4-difluoro-phenyl]-2,5-difluoro-benzenesulfonamide] | M (moderate solubility if the threshold concentration is 31.3 μM to 250 μM) | M (moderate solubility if the threshold concentration is 31.3 μM to 250 μM) | M (moderate solubility if the threshold concentration is 31.3 μM to 250 μM) | M (moderate solubility if the threshold concentration is 31.3 μM to 250 μM)
5 | < 0.01 µM | > 10 µM | 5 to 10 µM | N#Cc1cnc2[nH]cc(C(=O)c3c(F)ccc(NS(=O)(=O)c4cccc(F)c4)c3F)c2c1 [Compound P-0005, N-[3-(5-cyano-1H-pyrrolo[2,3-b]pyridine-3-carbonyl)-2,4-difluoro-phenyl]-3-fluoro-benzenesulfonamide] | M (moderate solubility if the threshold concentration is 31.3 μM to 250 μM) | M (moderate solubility if the threshold concentration is 31.3 μM to 250 μM) | M (moderate solubility if the threshold concentration is 31.3 μM to 250 μM) | M (moderate solubility if the threshold concentration is 31.3 μM to 250 μM)
6 | < 0.01 µM | > 10 µM | > 10 µM | N#Cc1cnc2[nH]cc(C(=O)c3c(F)ccc(NS(=O)(=O)N4CCCC4)c3F)c2c1 [Compound P-0006, pyrrolidine-1-sulfonic acid [3-(5-cyano-1H-pyrrolo[2,3-b]pyridine-3-carbonyl)-2,4-difluoro-phenyl]-amide] | M (moderate solubility if the threshold concentration is 31.3 μM to 250 μM) | M (moderate solubility if the threshold concentration is 31.3 μM to 250 μM) | M (moderate solubility if the threshold concentration is 31.3 μM to 250 μM) | M (moderate solubility if the threshold concentration is 31.3 μM to 250 μM)
7 | < 0.01 µM | > 10 µM | > 10 µM | CN(C)S(=O)(=O)Nc1ccc(F)c(C(=O)c2c[nH]c3ncc(C#N)cc23)c1F [Compound P-0007, N,N-dimethylamino-sulfonic acid [3-(5-cyano-1H-pyrrolo[2,3-b]pyridine-3-carbonyl)-2,4-difluoro-phenyl]-amide] | M (moderate solubility if the threshold concentration is 31.3 μM to 250 μM) | H (high solubility if the threshold concentration is >250 μM) | H (high solubility if the threshold concentration is >250 μM) | M (moderate solubility if the threshold concentration is 31.3 μM to 250 μM)
